Source: the NIST ThermoML archive (doi:10.1021/je200808q)

Assay: mn = molality of the nth substance listed, in mol/kg
Settings: Liquid, Taylor dispersion method

[Cl-].[K+] [potassium chloride] + O
Settings	binary diffusion coefficient [m2/s]
298.15 K, 160 kPa, m1 = 0	1.94e-09
298.15 K, 240 kPa, m1 = 1	1.89e-09
298.15 K, 290 kPa, m1 = 2.5	2.02e-09
298.15 K, 480 kPa, m1 = 4.5	2.17e-09
298.15 K, 2290 kPa, m1 = 2.5	2.02e-09
298.15 K, 4500 kPa, m1 = 2.5	2.04e-09
298.15 K, 10170 kPa, m1 = 1	1.91e-09
298.15 K, 14990 kPa, m1 = 0	1.94e-09
298.15 K, 24920 kPa, m1 = 2.5	2.04e-09
298.15 K, 27060 kPa, m1 = 4.5	2.14e-09
298.15 K, 28210 kPa, m1 = 1	1.92e-09
298.15 K, 30920 kPa, m1 = 0	1.95e-09
298.15 K, 32600 kPa, m1 = 2.5	2.05e-09
298.15 K, 37390 kPa, m1 = 2.5	2.04e-09
298.15 K, 38630 kPa, m1 = 1	1.92e-09
298.15 K, 43800 kPa, m1 = 4.5	2.17e-09
298.15 K, 45590 kPa, m1 = 1	1.95e-09
298.15 K, 47430 kPa, m1 = 2.5	2.04e-09
298.15 K, 48170 kPa, m1 = 0	1.95e-09
298.15 K, 59030 kPa, m1 = 1	1.96e-09
298.15 K, 62940 kPa, m1 = 0	1.97e-09
298.15 K, 64970 kPa, m1 = 2.5	2.07e-09
298.15 K, 66020 kPa, m1 = 4.5	2.18e-09
298.15 K, 66170 kPa, m1 = 2.5	2.08e-09
298.15 K, 67070 kPa, m1 = 1	1.98e-09
298.15 K, 67630 kPa, m1 = 2.5	2.08e-09
323.15 K, 500 kPa, m1 = 4.5	3.34e-09
323.15 K, 580 kPa, m1 = 2.5	3.15e-09
323.15 K, 610 kPa, m1 = 1	3.03e-09
323.15 K, 640 kPa, m1 = 0	3.02e-09
323.15 K, 3950 kPa, m1 = 4.5	3.32e-09
323.15 K, 15300 kPa, m1 = 1	3.06e-09
323.15 K, 15460 kPa, m1 = 0	3.02e-09
323.15 K, 31370 kPa, m1 = 4.5	3.35e-09
323.15 K, 33580 kPa, m1 = 0	3.08e-09
323.15 K, 40890 kPa, m1 = 2.5	3.12e-09
323.15 K, 43400 kPa, m1 = 1	3.08e-09
323.15 K, 45210 kPa, m1 = 2.5	3.18e-09
323.15 K, 47480 kPa, m1 = 2.5	3.17e-09
323.15 K, 49570 kPa, m1 = 4.5	3.29e-09
323.15 K, 52060 kPa, m1 = 1	3.1e-09
323.15 K, 60490 kPa, m1 = 2.5	3.12e-09
323.15 K, 62690 kPa, m1 = 4.5	3.35e-09
323.15 K, 64860 kPa, m1 = 2.5	3.15e-09
323.15 K, 68560 kPa, m1 = 0	3.09e-09
323.15 K, 68970 kPa, m1 = 1	3.1e-09
348.15 K, 650 kPa, m1 = 0	4.48e-09
348.15 K, 660 kPa, m1 = 1	4.23e-09
348.15 K, 700 kPa, m1 = 2.5	4.52e-09
348.15 K, 730 kPa, m1 = 4.5	4.65e-09
348.15 K, 12830 kPa, m1 = 4.5	4.59e-09
348.15 K, 15720 kPa, m1 = 0	4.49e-09
348.15 K, 18050 kPa, m1 = 2.5	4.55e-09
348.15 K, 25820 kPa, m1 = 1	4.25e-09
348.15 K, 29270 kPa, m1 = 0	4.44e-09
348.15 K, 29960 kPa, m1 = 2.5	4.57e-09
